Data as given in US10266526B2, “Substituted 1,2,3-triazoles as SMYD inhibitors for treating cancer” (EPIZYME, INC., priority 2014, dated 2019).
Counter-ions that a name gives are not always drawn.

Assays:
SMYD3 [1] = molecular target: T1, SMYD3 (Homo sapiens (Human), UniProt Q9H7B4); test: SMYD3 cell assay (Trimethyl-MEKK2 In-Cell Western in 293T/17 cells transfected with MEKK2-flag and SMYD3); assay type: cell-based; details: Table 3A; average of n = 1 to n = 50; read-out: SMYD3 cell IC50
Description: Trimethyl-MEKK2-in-Cell Western Assay
MEM/Glutamax medium, Optimem Reduced Serum medium, penicillin-streptomycin, 0.05% trypsin and 1×D-PBS were purchased from Life Technologies, Grand Island, N.Y., USA. PBS-10× was purchased from Ambion, Life Technologies, Grand Island, N.Y., USA. PBS with Tween 20 (PBST (10×)) was purchased from KPL, Gaithersburg, Md., USA. Tet System FBS-approved FBS US Source was purchased from Clontech, Mountain View, Calif., USA. Odyssey blocking buffer, 800CW goat anti-rabbit IgG (H+L) antibody, 680CW Goat anti-mouse IgG (H+L) and Licor Odyssey infrared scanner were purchased from Licor Biosciences, Lincoln, Nebr., USA. Tri-methyl-Lysine [A260]-MEKK2 antibody, MEKK2 and SMYD3 plasmids were made at Epizyme. Anti-flag monoclonal mouse antibody was purchased from Sigma, St. Louis, Mo., USA. Methanol was purchased from VWR, Franklin, Mass., USA. 10% Tween 20 was purchased from KPL, Inc., Gaithersburg, Md., USA. Fugene was purchased from Promega, Madison, Wis., USA. The Biotek ELx405 was purchased from BioTek, Winooski, Vt., USA. The multidrop combi was purchased from Thermo Scientific, Waltham, Mass., USA.
Cell Treatment, in Cell Western (ICW) for Detection of Trimethyl-Lysine-MEKK2 and MEKK2.
Plasmids were prepared for delivery to cells by first mixing 1350 μL Opti-MEM with Fugene (81 μL) in a sterile Eppendorf and incubated for five minutes at room temperature (RT). […] Entire volume of Opti-MEM/Fugene mixture was then added to a microfuge tube containing DNA plasmid, mixed and then incubated ×15 minutes at RT. […] Medium was then removed, and cells were washed once with PBS in the flask. Trypsin 0.05% (3 mL) was added and cells incubated for three minutes. Room temperature MEM+10% Tet system FBS was added and cells were mixed gently, and counted using the Vi-cell. Cells were seeded at 100,000 cells/mL in 50 μL MEM/10% Tet FBS/Pen/Strep to a 384 well black/clear poly-D-lysine coated plate containing test agent diluted in DMSO. The final top concentration of test compound was 40 μM. […] Plates were incubated ×30 minutes at RT in low-airflow area, followed by incubation at 37° C. under 5% CO2 for 24 hours. Medium was aspirated from all wells of assay plates prior to fixation and permeabilization with ice cold (−20° C.) methanol (90 μL/well) for ten minutes. Plates were rinsed with PBS three times on BioTek ELx405. PBS was removed with a final aspiration, and Odyssey blocking buffer (50 μL/well) was added to each well and incubated for one hour at RT. Primary antibody solution was prepared (anti-trimethyl-MEKK2 at 1:600 dilution plus mouse anti-flag antibody at 1:10,000 dilution in diluent (Odyssey Blocking buffer+0.1% Tween 20)) and 20 μL per well was dispensed using the Multidrop Combi. Assay plates were then sealed with foil, and incubated overnight at 4° C. Plates were washed five times with PBS-Tween (1×) on Biotek ELx405 and blotted on paper towel to remove excess reagent.
First, the ratio for each well was determined by:
Each plate included fourteen control wells of DMSO only treatment (Minimum Inhibition) as well as fourteen control wells for maximum inhibition (Background). The average of the ratio values for each control type was calculated and used to determine the percent inhibition for each test well in the plate. Reference compound was serially diluted two-fold in DMSO for a total of nine test concentrations, beginning at 40 μM. Percent inhibition was calculated (below).
Non-linear regression curves were generated to calculate the IC50 and dose-response relationship using triplicate wells per concentration of compound.

SMYD3 [2] = molecular target: T1, SMYD3; test: SMYD3 biochemical assay (SMYD3 enzyme assay on MEKK2 protein substrate, 3H-SAM scintillation proximity assay); details: read-out: SMYD3 Biochem IC50
Procedure, shortened: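 Native full-length human SMYD3, expressed in E. coli, was preincubated with compound for 30 min at room temperature in 25 mM Tris-Cl pH 8.0, 1 mM TCEP, 0.005% BSG and 0.005% Tween 20. ³H-SAM plus GST-MEKK2 then started the reaction. It was stopped with unlabeled SAM (100 uM final), and methylated MEKK2 was read by SPA.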

[3] = Table 3A, average of n = 1 to n = 50

T1 sequence (Q9H7B4 whole entry): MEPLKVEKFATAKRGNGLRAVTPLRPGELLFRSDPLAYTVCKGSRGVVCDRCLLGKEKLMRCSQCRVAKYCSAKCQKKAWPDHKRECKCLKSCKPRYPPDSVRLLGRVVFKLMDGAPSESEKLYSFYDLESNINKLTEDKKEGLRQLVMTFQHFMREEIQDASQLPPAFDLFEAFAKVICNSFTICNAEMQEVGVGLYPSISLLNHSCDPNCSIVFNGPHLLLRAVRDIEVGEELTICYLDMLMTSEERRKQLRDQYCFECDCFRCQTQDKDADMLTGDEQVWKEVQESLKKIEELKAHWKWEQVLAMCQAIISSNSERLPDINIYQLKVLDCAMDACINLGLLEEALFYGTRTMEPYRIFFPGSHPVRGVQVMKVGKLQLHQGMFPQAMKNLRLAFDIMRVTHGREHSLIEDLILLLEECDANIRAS

Row | Structure (SMILES) | IC50 (SMYD3 [1]) | IC50 (SMYD3 [2]; [3]) | IC50 (SMYD3 [2])
1 | C[C@H]1C[C@@H](NC(=O)c2cc3c(cc2Cl)NC(=O)C3)CCN1S(=O)(=O)c1ccc(C(C)(C)N)cc1 [compound 588, N-((2S,4S)-1-((4-(2-aminopropan-2-yl)phenyl)sulfonyl)-2-methylpiperidin-4-yl)-6-chloro-2-oxoindoline-5-carboxamide] | 0.356 µM | 0.00198 µM | 
2 | CNC1CCN(S(=O)(=O)N2[C@@H]3CC[C@H]2C[C@@H](NC(=O)c2ccc4c(c2)CC(=O)N4)C3)CC1 [compound 589, N-((1R,3r,5S)-8-((4-(methylamino)piperidin-1-yl)sulfonyl)-8-azabicyclo[3.2.1]octan-3-yl)-2-oxoindoline-5-carboxamide] | 0.987 µM | 0.00213 µM | 
3 | O=C1Cc2cc(C(=O)N[C@H]3C[C@H]4CC[C@@H](C3)N4S(=O)(=O)CC3CCCNC3)ccc2N1 (stereo partly drawn) [compound 590, 2-oxo-N-((1R,3r,5S)-8-((piperidin-3-ylmethyl)sulfonyl)-8-azabicyclo[3.2.1]octan-3-yl)indoline-5-carboxamide] | 0.768 µM |  | 0.00214 µM
4 | N[C@H]1CC[C@@H](S(=O)(=O)N2[C@@H]3CC[C@H]2C[C@@H](NC(=O)c2ccc4c(c2)CC(=O)N4)C3)CC1 [compound 591, N-((1R,3R,5S)-8-(((1s,4S)-4-aminocyclohexyl)sulfonyl)-8-azabicyclo[3.2.1]octan-3-yl)-2-oxoindoline-5-carboxamide] | 2.31 µM |  | 0.00233 µM
5 | CN(C)C1CCN(S(=O)(=O)N2[C@@H]3CC[C@H]2C[C@@H](NC(=O)c2ccc4c(c2)CC(=O)N4)C3)CC1 [compound 593, N-((1R,3r,5S)-8-((4-(dimethylamino)piperidin-1-yl)sulfonyl)-8-azabicyclo[3.2.1]octan-3-yl)-2-oxoindoline-5-carboxamide] | 0.5 µM | 0.00289 µM | 
6 | CN(C)C1CCN(S(=O)(=O)N2[C@@H]3CC[C@H]2C[C@@H](NC(=O)c2cc4c(cc2Cl)NC(=O)C4)C3)CC1 [compound 594, 6-chloro-N-((1R,3r,5S)-8-((4-(dimethylamino)piperidin-1-yl)sulfonyl)-8-azabicyclo[3.2.1]octan-3-yl)-2-oxoindoline-5-carboxamide] | 0.301 µM |  | 0.00346 µM
7 | O=C1Cc2cc(C(=O)N[C@H]3C[C@H]4CC[C@@H](C3)N4S(=O)(=O)CC3CCNCC3)c(Cl)cc2N1 [compound 596, 6-chloro-2-oxo-N-((1R,3r,5S)-8-((piperidin-4-ylmethyl)sulfonyl)-8-azabicyclo[3.2.1]octan-3-yl)indoline-5-carboxamide] | 2.66 µM | 0.0036 µM | 
8 | O=C1Cc2cc(C(=O)N[C@H]3C[C@H]4CC[C@@H](C3)N4S(=O)(=O)CC3CCNCC3)ccc2N1 [compound 597, 2-oxo-N-((1R,3r,5S)-8-((piperidin-4-ylmethyl)sulfonyl)-8-azabicyclo[3.2.1]octan-3-yl)indoline-5-carboxamide] | 3.44 µM | 0.00398 µM | 
9 | O=C1Cc2cc(C(=O)N[C@H]3C[C@H]4CC[C@@H](C3)N4S(=O)(=O)C[C@H]3CCCNC3)c(Cl)cc2N1 [compound 598, 6-chloro-2-oxo-N-((1R,3S,5S)-8-((((S)-piperidin-3-yl)methyl)sulfonyl)-8-azabicyclo[3.2.1]octan-3-yl)indoline-5-carboxamide] | 1.27 µM | 0.00412 µM | 
10 | C[C@H]1C[C@@H](NC(=O)c2ccc3c(c2)CC(=O)N3)CCN1S(=O)(=O)CC1CCNCC1 [compound 599, N-((2S,4S)-2-methyl-1-((piperidin-4-ylmethyl)sulfonyl)piperidin-4-yl)-2-oxoindoline-5-carboxamide] | 9.49 µM | 0.00442 µM | 
11 | O=C1Cc2cc(C(=O)N[C@H]3C[C@H]4CC[C@@H](C3)N4S(=O)(=O)C[C@@H]3CCCNC3)c(Cl)cc2N1 [compound 600, 6-chloro-2-oxo-N-((1R,3R,5S)-8-((((R)-piperidin-3-yl)methyl)sulfonyl)-8-azabicyclo[3.2.1]octan-3-yl)indoline-5-carboxamide] | 0.728 µM | 0.00499 µM | 
12 | NC1CCN(S(=O)(=O)N2[C@@H]3CC[C@H]2C[C@@H](NC(=O)c2cc4c(cc2Br)NC(=O)C4)C3)CC1 [compound 602, N-((1R,3r,5S)-8-((4-aminopiperidin-1-yl)sulfonyl)-8-azabicyclo[3.2.1]octan-3-yl)-6-bromo-2-oxoindoline-5-carboxamide] | 3.73 µM | 0.00712 µM | 
13 | C[C@H]1CN(S(=O)(=O)N2CCC(N)CC2)CCC1NC(=O)c1cc2c(cc1Cl)NC(=O)C2 (stereo partly drawn) [compound 603, N-((3S)-1-((4-aminopiperidin-1-yl)sulfonyl)-3-methylpiperidin-4-yl)-6-chloro-2-oxoindoline-5-carboxamide] | 2.68 µM | 0.00853 µM | 
14 | CN1C(=O)Cc2cc(C(=O)N[C@H]3C[C@H]4CC[C@@H](C3)N4S(=O)(=O)N3CCC(N)CC3)c(Cl)cc21 [compound 604, N-((1R,3r,5S)-8-((4-aminopiperidin-1-yl)sulfonyl)-8-azabicyclo[3.2.1]octan-3-yl)-6-chloro-1-methyl-2-oxoindoline-5-carboxamide] | 0.207 µM | 0.0135 µM | 
15 | CCc1cc(C(=O)N[C@H]2CCN(S(=O)(=O)N3CCC(N)CC3)[C@@H](C)C2)ns1 [compound 605, N-((2S,4S)-1-(4-aminopiperidin-1-ylsulfonyl)-2-methylpiperidin-4-yl)-5-ethyl-1,2-thiazole-3-carboxamide Hydrochloride] | 0.201 µM |  | 0.0154 µM
16 | Cc1cc2c(cc1C(=O)N[C@H]1C[C@H]3CC[C@@H](C1)N3S(=O)(=O)N1CCC(N)CC1)CC(=O)N2 [compound 606, N-((1R,3r,5S)-8-((4-aminopiperidin-1-yl)sulfonyl)-8-azabicyclo[3.2.1]octan-3-yl)-6-methyl-2-oxoindoline-5-carboxamide] | 1.79 µM | 0.0156 µM | 
17 | C[C@H]1C[C@@H](NC(=O)c2nnc(C3CC3)s2)CCN1S(=O)(=O)N1CCC(N)CC1 [compound 607, N-((2S,4S)-1-((4-aminopiperidin-1-yl)sulfonyl)-2-methylpiperidin-4-yl)-5-cyclopropyl-1,3,4-thiadiazole-2-carboxamide] | 0.205 µM | 0.0181 µM | 
18 | C[C@@H]1CN(S(=O)(=O)N2CCC(N)CC2)CC[C@H]1NC(=O)c1cc2c(cc1Cl)NC(=O)C2 [compound 608, N-((3R,4R)-1-((4-aminopiperidin-1-yl)sulfonyl)-3-methylpiperidin-4-yl)-6-chloro-2-oxoindoline-5-carboxamide] | 6.24 µM | 0.0214 µM | 
19 | NC1CCN(S(=O)(=O)N2[C@@H]3CC[C@H]2C[C@@H](NC(=O)c2ccc4c(c2)NC(=O)CO4)C3)CC1 [compound 609, N-((1R,3r,5S)-8-(4-aminopiperidin-1-ylsulfonyl)-8-aza-bicyclo[3.2.1]octan-3-yl)-3-oxo-3,4-dihydro-2H-benzo[b][1,4]oxazine-6-carboxamide Hydrochloride] | 3.7 µM | 0.0237 µM | 
20 | CN1C(=O)Cc2cc(C(=O)N[C@H]3C[C@H]4CC[C@@H](C3)N4S(=O)(=O)CC3CCNCC3)ccc21 [compound 611, 1-methyl-2-oxo-N-((1R,3r,5S)-8-((piperidin-4-ylmethyl)sulfonyl)-8-azabicyclo[3.2.1]octan-3-yl)indoline-5-carboxamide] | 3.92 µM | 0.0259 µM | 
